# Test results as given in ChEMBL document CHEMBL1909046, “DrugMatrix in vitro pharmacology data”.
# Biological target: T1, Muscarinic acetylcholine receptor M5 (Homo sapiens, UniProt P08912)
# T1 sequence (P08912 whole entry): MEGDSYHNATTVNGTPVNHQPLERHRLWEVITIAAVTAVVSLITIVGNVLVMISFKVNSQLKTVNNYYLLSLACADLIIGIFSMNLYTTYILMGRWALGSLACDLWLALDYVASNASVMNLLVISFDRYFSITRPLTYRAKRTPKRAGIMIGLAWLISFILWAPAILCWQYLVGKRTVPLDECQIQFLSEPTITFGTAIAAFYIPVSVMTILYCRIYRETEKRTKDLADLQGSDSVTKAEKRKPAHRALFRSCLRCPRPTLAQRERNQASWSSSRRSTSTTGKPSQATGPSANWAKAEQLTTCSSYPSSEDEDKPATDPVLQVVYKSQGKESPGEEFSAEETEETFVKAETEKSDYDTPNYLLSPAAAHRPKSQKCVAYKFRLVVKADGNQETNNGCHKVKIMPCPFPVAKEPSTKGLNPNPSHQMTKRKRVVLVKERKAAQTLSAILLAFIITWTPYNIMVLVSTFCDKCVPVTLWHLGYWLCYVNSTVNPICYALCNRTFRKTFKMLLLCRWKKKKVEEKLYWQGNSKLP
# Type: cell membranes, CHO-K1, Membrane
# Conditions: cho-k1
# Further: in other assays of this panel Not Active means under 50% inhibition at 10 µM.
Compound,IC50,Ki
O=C1C[C@@H]2OCC=C3CN4CC[C@]56c7ccccc7N1[C@H]5[C@H]2[C@H]3C[C@H]46 [STRYCHNINE],Not Active,–
C[N+](C)(C)CCOC(=O)CCC(=O)OCC[N+](C)(C)C.[Cl-].[Cl-] [SUCCINYLCHOLINE CHLORIDE],Not Active,–
Nc1ccc(S(=O)(=O)NC(=O)c2ccccc2)cc1 [SULFABENZAMIDE],Not Active,–
O=c1[nH]c(=O)n(C2CCCO2)cc1F (stereo not given) [TEGAFUR],Not Active,–
CC(=N)S [THIOACETAMIDE],Not Active,–
Cc1ccc(C(=O)c2ccc(CC(=O)O)n2C)cc1 [TOLMETIN],Not Active,–
CC(=O)OCC(COC(C)=O)OC(C)=O [TRIACETIN],Not Active,–
CN1CCN(CCCN2c3ccccc3Sc3ccc(C(F)(F)F)cc32)CC1 [TRIFLUOPERAZINE],Not Active,–
ZIRCONIUM(IV) CHLORIDE,Not Active,Not Active

# Same assay, conditions: cho-k1; read-out: IC50
row,Compound,IC50
1,TRANSPLATIN,5.93 µM

# Same assay, conditions: cho-k1; read-out: Ki
row,Compound,Ki
1,TRANSPLATIN,4.26 µM

# Same assay, conditions: read-out: IC50
row,Compound,IC50
1,CCCCCCCCNC(C)C(O)c1ccc(SC(C)C)cc1 (stereo not given) [SULOCTIDIL],4.49 µM

# Same assay, conditions: read-out: Ki
row,Compound,Ki
1,CCCCCCCCNC(C)C(O)c1ccc(SC(C)C)cc1 (stereo not given) [SULOCTIDIL],3.22 µM

# Biological target: T2, Neutrophil elastase (Homo sapiens, UniProt P08246);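 further: inhibition of neutrophil elastase enzyme activity, measured with a p-nitroanilide-linked peptide substrate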
# T2 sequence (P08246 whole entry): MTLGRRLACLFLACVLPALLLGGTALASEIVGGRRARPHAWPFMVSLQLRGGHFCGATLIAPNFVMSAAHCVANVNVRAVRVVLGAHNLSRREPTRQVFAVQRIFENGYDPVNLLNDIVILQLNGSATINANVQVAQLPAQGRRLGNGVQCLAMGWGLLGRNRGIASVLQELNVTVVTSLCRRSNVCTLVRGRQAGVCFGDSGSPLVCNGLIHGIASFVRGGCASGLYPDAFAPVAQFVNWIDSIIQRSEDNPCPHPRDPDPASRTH
# Type: tissue-based
# Conditions: not given
Compound,IC50,Ki
CN1[C@@H]2CC[C@H]1C[C@@H](OC(c1ccccc1)c1ccccc1)C2 [BENZTROPINE],Not Active,–
CN1CCN(C2=Nc3cc(Cl)ccc3Nc3ccccc32)CC1 [CLOZAPINE],Not Active,–
OCCOCCN1CCN(C2=Nc3ccccc3Sc3ccccc32)CC1 [QUETIAPINE],Not Active,–
O=C1C[C@@H]2OCC=C3CN4CC[C@]56c7ccccc7N1[C@H]5[C@H]2[C@H]3C[C@H]46 [STRYCHNINE],Not Active,–
C[N+](C)(C)CCOC(=O)CCC(=O)OCC[N+](C)(C)C.[Cl-].[Cl-] [SUCCINYLCHOLINE CHLORIDE],Not Active,–
Nc1ccc(S(=O)(=O)NC(=O)c2ccccc2)cc1 [SULFABENZAMIDE],Not Active,–
CCCCCCCCNC(C)C(O)c1ccc(SC(C)C)cc1 (stereo not given) [SULOCTIDIL],Not Active,–
O=c1[nH]c(=O)n(C2CCCO2)cc1F (stereo not given) [TEGAFUR],Not Active,–
CC(=N)S [THIOACETAMIDE],Not Active,–
Cc1ccc(C(=O)c2ccc(CC(=O)O)n2C)cc1 [TOLMETIN],Not Active,–
CC(=O)OCC(COC(C)=O)OC(C)=O [TRIACETIN],Not Active,–
CN1CCN(CCCN2c3ccccc3Sc3ccc(C(F)(F)F)cc32)CC1 [TRIFLUOPERAZINE],Not Active,–
TRANSPLATIN,Not Active,Not Active
ZIRCONIUM(IV) CHLORIDE,Not Active,Not Active

# Biological target: T3, Muscarinic acetylcholine receptor M2 (Homo sapiens, UniProt P08172)
# T3 sequence (P08172 whole entry): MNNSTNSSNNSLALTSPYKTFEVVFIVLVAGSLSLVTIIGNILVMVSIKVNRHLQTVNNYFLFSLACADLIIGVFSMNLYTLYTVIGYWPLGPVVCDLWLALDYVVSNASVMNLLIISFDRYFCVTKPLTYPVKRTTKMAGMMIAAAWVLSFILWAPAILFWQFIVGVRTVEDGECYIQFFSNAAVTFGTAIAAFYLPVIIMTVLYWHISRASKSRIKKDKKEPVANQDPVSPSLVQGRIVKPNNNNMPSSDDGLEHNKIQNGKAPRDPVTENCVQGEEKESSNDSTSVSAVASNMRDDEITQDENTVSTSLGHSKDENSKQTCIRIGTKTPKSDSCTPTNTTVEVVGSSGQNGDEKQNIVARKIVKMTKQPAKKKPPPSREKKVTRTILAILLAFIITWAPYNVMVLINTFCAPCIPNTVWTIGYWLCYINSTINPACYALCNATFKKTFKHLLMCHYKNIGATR
# Type: cell membranes, CHO-K1, Membrane
# Conditions: cho-k1
Compound,IC50,Ki
O=C1C[C@@H]2OCC=C3CN4CC[C@]56c7ccccc7N1[C@H]5[C@H]2[C@H]3C[C@H]46 [STRYCHNINE],Not Active,–
C[N+](C)(C)CCOC(=O)CCC(=O)OCC[N+](C)(C)C.[Cl-].[Cl-] [SUCCINYLCHOLINE CHLORIDE],Not Active,–
Nc1ccc(S(=O)(=O)NC(=O)c2ccccc2)cc1 [SULFABENZAMIDE],Not Active,–
CCCCCCCCNC(C)C(O)c1ccc(SC(C)C)cc1 (stereo not given) [SULOCTIDIL],Not Active,–
O=c1[nH]c(=O)n(C2CCCO2)cc1F (stereo not given) [TEGAFUR],Not Active,–
CC(=N)S [THIOACETAMIDE],Not Active,–
Cc1ccc(C(=O)c2ccc(CC(=O)O)n2C)cc1 [TOLMETIN],Not Active,–
CC(=O)OCC(COC(C)=O)OC(C)=O [TRIACETIN],Not Active,–
CN1CCN(CCCN2c3ccccc3Sc3ccc(C(F)(F)F)cc32)CC1 [TRIFLUOPERAZINE],Not Active,–
TRANSPLATIN,Not Active,Not Active
ZIRCONIUM(IV) CHLORIDE,Not Active,Not Active

# Biological target: T4, Adenosine receptor A3 (Homo sapiens, UniProt P0DMS8);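 further: radioligand binding assay with AB-MECA serving as the labeled ligand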
# T4 sequence (P0DMS8 whole entry): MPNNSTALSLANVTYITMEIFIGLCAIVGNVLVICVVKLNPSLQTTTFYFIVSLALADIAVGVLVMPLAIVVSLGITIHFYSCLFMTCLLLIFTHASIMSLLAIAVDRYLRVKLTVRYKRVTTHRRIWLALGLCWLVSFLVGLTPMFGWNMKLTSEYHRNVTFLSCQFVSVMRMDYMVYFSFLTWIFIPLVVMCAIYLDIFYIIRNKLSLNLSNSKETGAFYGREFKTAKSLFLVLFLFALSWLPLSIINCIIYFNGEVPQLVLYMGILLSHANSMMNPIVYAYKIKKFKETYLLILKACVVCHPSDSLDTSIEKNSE
# Type: cell membranes, CHO-K1, Membrane
# Conditions: cho-k1
Compound,IC50,Ki
CN1[C@@H]2CC[C@H]1C[C@@H](OC(c1ccccc1)c1ccccc1)C2 [BENZTROPINE],Not Active,–
CN1CCN(C2=Nc3cc(Cl)ccc3Nc3ccccc32)CC1 [CLOZAPINE],Not Active,–
OCCOCCN1CCN(C2=Nc3ccccc3Sc3ccccc32)CC1 [QUETIAPINE],Not Active,–
O=C1C[C@@H]2OCC=C3CN4CC[C@]56c7ccccc7N1[C@H]5[C@H]2[C@H]3C[C@H]46 [STRYCHNINE],Not Active,–
C[N+](C)(C)CCOC(=O)CCC(=O)OCC[N+](C)(C)C.[Cl-].[Cl-] [SUCCINYLCHOLINE CHLORIDE],Not Active,–
Nc1ccc(S(=O)(=O)NC(=O)c2ccccc2)cc1 [SULFABENZAMIDE],Not Active,–
O=c1[nH]c(=O)n(C2CCCO2)cc1F (stereo not given) [TEGAFUR],Not Active,–
CC(=N)S [THIOACETAMIDE],Not Active,–
Cc1ccc(C(=O)c2ccc(CC(=O)O)n2C)cc1 [TOLMETIN],Not Active,–
CC(=O)OCC(COC(C)=O)OC(C)=O [TRIACETIN],Not Active,–
CN1CCN(CCCN2c3ccccc3Sc3ccc(C(F)(F)F)cc32)CC1 [TRIFLUOPERAZINE],Not Active,–
ZIRCONIUM(IV) CHLORIDE,Not Active,Not Active

# Same assay, conditions: cho-k1; read-out: IC50
row,Compound,IC50
1,TRANSPLATIN,0.989 µM

# Same assay, conditions: cho-k1; read-out: Ki
row,Compound,Ki
1,TRANSPLATIN,0.559 µM

# Same assay, conditions: read-out: IC50
row,Compound,IC50
1,CCCCCCCCNC(C)C(O)c1ccc(SC(C)C)cc1 (stereo not given) [SULOCTIDIL],3.71 µM

# Same assay, conditions: read-out: Ki
row,Compound,Ki
1,CCCCCCCCNC(C)C(O)c1ccc(SC(C)C)cc1 (stereo not given) [SULOCTIDIL],2.09 µM
